The values that follow come from publication PMC3872227 (Chemistry & biology, 2013).

In the assay the target is α1(A322D)β2γ2 GABAA receptor (α1 subunit) (Homo sapiens, UniProt P14867+P47870, P14867:A322D). In words: whole-cell patch-clamp peak current at […] GABA, after SAHA treatment. Format: cell-based.
Chain of α1(A322D)β2γ2 GABAA receptor (α1 subunit) (P14867 28-456 A322D): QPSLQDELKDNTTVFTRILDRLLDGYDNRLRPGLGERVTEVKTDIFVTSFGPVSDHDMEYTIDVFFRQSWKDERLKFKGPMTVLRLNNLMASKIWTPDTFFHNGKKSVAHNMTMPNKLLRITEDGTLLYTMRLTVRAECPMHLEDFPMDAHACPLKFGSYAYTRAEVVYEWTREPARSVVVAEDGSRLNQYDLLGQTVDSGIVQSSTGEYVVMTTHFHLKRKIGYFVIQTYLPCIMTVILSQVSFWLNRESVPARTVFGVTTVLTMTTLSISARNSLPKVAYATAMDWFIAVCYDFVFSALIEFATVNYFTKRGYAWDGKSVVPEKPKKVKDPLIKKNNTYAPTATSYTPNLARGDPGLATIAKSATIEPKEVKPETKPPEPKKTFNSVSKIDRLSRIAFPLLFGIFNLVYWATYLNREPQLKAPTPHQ
Chain of α1(A322D)β2γ2 GABAA receptor (α1 subunit) (P47870 26-512): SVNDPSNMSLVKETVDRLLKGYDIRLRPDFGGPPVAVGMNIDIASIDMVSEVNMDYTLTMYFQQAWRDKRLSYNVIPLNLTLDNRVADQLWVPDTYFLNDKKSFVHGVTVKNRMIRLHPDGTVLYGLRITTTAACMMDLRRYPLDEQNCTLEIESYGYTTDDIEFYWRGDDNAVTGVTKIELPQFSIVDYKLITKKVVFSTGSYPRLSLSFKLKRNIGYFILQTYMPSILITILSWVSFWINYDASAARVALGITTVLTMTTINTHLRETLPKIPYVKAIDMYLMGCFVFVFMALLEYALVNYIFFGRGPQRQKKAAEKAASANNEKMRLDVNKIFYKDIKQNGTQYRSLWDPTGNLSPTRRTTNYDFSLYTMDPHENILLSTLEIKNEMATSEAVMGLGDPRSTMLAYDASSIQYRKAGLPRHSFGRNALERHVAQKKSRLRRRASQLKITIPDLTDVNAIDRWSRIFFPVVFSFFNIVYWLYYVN
Chain of α1(A322D)β2γ2 GABAA receptor (α1 subunit) (P18507 40-475 partner): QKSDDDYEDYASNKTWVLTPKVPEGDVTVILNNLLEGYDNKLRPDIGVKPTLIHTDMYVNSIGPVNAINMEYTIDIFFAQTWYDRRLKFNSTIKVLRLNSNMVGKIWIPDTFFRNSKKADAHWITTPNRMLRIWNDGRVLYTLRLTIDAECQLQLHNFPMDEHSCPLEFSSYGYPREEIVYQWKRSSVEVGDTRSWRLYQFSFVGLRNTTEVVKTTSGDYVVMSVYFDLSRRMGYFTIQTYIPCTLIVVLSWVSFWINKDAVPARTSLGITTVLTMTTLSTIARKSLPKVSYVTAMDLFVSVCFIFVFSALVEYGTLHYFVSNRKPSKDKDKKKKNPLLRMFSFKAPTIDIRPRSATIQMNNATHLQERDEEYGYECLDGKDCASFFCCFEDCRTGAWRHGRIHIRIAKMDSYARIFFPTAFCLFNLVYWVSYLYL

On to `NCCCC(=O)O` [GABA], for which the “whole-cell patch-clamp peak current at 3 mM GABA, after SAHA treatment” value is 14 ± 3 pA.
